Laboratory results taken from patent US5023254A, “Aminoalkylindoles, their production, and pharmaceutical preparations based thereon” (Schering Aktiengesellschaft, priority 1988, dated 1991).
“And” between values parts separate entries of the source, which are not always exact repeats. Equal entries are not always repeated.

Tests used:
[1] = target: T1, estrogen receptor (Bos taurus, UniProt P49884); assay: relative binding affinity (RBA) for the estrogen receptor from calf uterus, displacement of 3H-17β estradiol; conditions: for affinity for the estrogen receptor (in words): in comparison with estradiol; for RBA (relative binding affinity for the estrogen receptor): calf uterus, relative to 17 beta estradiol = 100
T1 construct: estrogen receptor from calf uterus; from tissue; host or cells: calf uterus
T1 sequence (P49884 1-596): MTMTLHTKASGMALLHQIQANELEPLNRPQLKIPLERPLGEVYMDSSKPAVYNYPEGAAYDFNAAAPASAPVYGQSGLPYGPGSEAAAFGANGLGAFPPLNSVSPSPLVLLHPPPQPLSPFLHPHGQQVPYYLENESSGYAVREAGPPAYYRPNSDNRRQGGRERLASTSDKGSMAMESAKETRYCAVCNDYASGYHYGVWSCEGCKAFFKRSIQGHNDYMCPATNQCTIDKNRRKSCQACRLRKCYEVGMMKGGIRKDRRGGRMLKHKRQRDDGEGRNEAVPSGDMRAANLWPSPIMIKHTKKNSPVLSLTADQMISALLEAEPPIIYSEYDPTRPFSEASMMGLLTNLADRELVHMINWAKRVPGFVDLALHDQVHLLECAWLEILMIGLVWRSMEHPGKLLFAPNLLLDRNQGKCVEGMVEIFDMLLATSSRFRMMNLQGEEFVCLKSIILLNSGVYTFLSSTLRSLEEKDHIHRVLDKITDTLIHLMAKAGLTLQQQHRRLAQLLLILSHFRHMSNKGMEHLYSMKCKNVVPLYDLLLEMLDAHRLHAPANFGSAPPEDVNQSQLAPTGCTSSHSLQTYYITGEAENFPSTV
Excerpt: *Relative binding affinities for the estrogen receptor from calf uterus,

[2] = test system: mouse uterus; assay: Uterotrophic test on infantile mouse (estrogen activity); format: in vivo; set-up: unit not given here
Excerpt: (§1) This test is fully described in Cancer Treatment Reviews 1984, 11, 147, and J.Med.Chem., 1984, 27, 1439.

[3] = test system: mouse uterus; assay: Antiuterotrophic test on infantile mouse (anti-estrogen activity); format: in vivo; set-up: Antiuterotrophic Test Rel. uterus wgt / Antiuterotrophic Test Action (rel. uterus wgt): unit not given here; conditions: for inhibition in vivo at 0.125 mg: Mus musculus; for inhibition in vivo at 0.125 mg / inhibition in vivo at 0.005 mg / inhibition in vivo at 0.025 mg / inhibition in vivo at 0.625 mg: read-out: Antiuterotrophic Test Inhib. (%); for Antiuterotrophic Test Rel. uterus wgt / inhibition in vivo at 0.005 mg / inhibition in vivo at 0.025 mg / Antiuterotrophic Test Action (rel. uterus wgt) / inhibition in vivo at 0.625 mg: infantile mouse; for inhibition in vivo at 0.005 mg: dose 5 ug (per animal); for inhibition in vivo at 0.025 mg: dose 25 ug (per animal)
Excerpt: as §1

[4] = test system: human MCF-7 breast cancer cells; assay: growth of hormone-dependent human MCF-7 breast cancer cells, cell count; format: cell-based; conditions: Homo sapiens, MCF7, read-out: Cell Count (% T/C); for activity at 10 µM: MCF-7, 1 × 10^-5 M; for activity at 1 µM: MCF-7, 1 × 10^-6 M; for activity at 0.1 µM: MCF-7, 1 × 10^-7 M; for activity at 5 µM: MCF-7, 5 × 10^-6 M; for activity at 0.5 µM: MCF-7, 5 × 10^-7 M
Excerpt: The test protocol for the research is fully described in Eur.J. Cancer Clin. Oncol.

RBA (relative binding affinity for the estrogen receptor) [1]	SMILES	inhibition in vivo at 0.125 mg [3]	inhibition in vivo at 0.005 mg [3]	inhibition in vivo at 0.025 mg [3]	activity at 10 µM [4]	activity at 1 µM [4]	activity at 0.1 µM [4]	Uterotrophic Test Action (rel. uterus wgt) ([2]; dose 5 ug/animal)	Uterotrophic Test Action (rel. uterus wgt) ([2]; dose 25 ug/animal)	Antiuterotrophic Test Action (rel. uterus wgt) ([3]; dose 5 ug/animal)	Antiuterotrophic Test Action (rel. uterus wgt) ([3]; dose 25 ug/animal)	also measured
–	Cc1c(-c2ccc(O)cc2)n(CCCCCCN)c2ccc(O)cc12 [Compound 2, 5-Hydroxy-2-(4-hydroxyphenyl)-3-methyl-1-[6-amino-hexyl]-indole]	99%	68%	102%	–	–	–	–	–	–	–	affinity for the estrogen receptor (in words) [1]: greatest affinity; Uterotrophic Test Rel. uterus wgt ([2]; dose 1 ug): 10.9 ± 4.7; Uterotrophic Test Rel. uterus wgt ([2]; dose 5 ug): 12.0 ± 2.2; Uterotrophic Test Rel. uterus wgt ([2]; dose 25 ug): 12.4 ± 2.7; Uterotrophic Test Rel. uterus wgt ([2]; dose 125 ug): 16.9 ± 2.7; Antiuterotrophic Test Rel. uterus wgt ([3]; dose 5 ug): 30.0 ± 9.1; Antiuterotrophic Test Rel. uterus wgt ([3]; dose 25 ug): 15.1 ± 1.2; Antiuterotrophic Test Rel. uterus wgt ([3]; dose 125 ug): 16.2 ± 2.7
27	CNCCCCCCn1c(-c2ccc(O)cc2)c(C)c2cc(O)ccc21 [Compound 3, 5-Hydroxy-2-(4-hydroxyphenyl)-3-methyl-1-[6-methylamino-hexyl]-indole]	59%	49%	43%	–	–	–	–	–	–	–	affinity for the estrogen receptor (in words) [1]: greatest affinity; Uterotrophic Test Rel. uterus wgt ([2]; dose 1 ug): 14.2 ± 3.1; Uterotrophic Test Rel. uterus wgt ([2]; dose 5 ug): 22.8 ± 8.6; Uterotrophic Test Rel. uterus wgt ([2]; dose 125 ug): 34.0 ± 6.3; Antiuterotrophic Test Rel. uterus wgt ([3]; dose 5 ug): 38.1 ± 8.2; Antiuterotrophic Test Rel. uterus wgt ([3]; dose 25 ug): 41.0 ± 8.5; Antiuterotrophic Test Rel. uterus wgt ([3]; dose 125 ug): 33.8 ± 2.4
12	Cc1c(-c2ccc(O)cc2)n(CCCCCCN(C)C)c2ccc(O)cc12 [Compound 4, 5-Hydroxy-2-(4-hydroxyphenyl)-3-methyl-1-[6-dimethyamino-hexyl]-indole]	–	–	–	–	–	–	–	–	–	–	–
2.3	Oc1ccc(-c2cc3cc(O)ccc3n2CCCCCCN2CCCC2)cc1 [Compound 5, 5-Hydroxy-2-(4-hydroxyphenyl)-1-[6-pyrrolidino-hexyl]-indole]	–	–	–	–	–	–	–	–	–	–	–
1.3	Oc1ccc(-c2cc3cc(O)ccc3n2CCCCCCN2CCCCC2)cc1 [Compound 7, 5-Hydroxy-2-(4-hydroxyphenyl)-1-[6-piperidino-hexyl]-indole]	–	–	–	–	–	–	–	–	–	–	affinity for the estrogen receptor (in words) [1]: least affinity
23	Cc1c(-c2ccc(O)cc2)n(CCCCCCN2CCCCC2)c2ccc(O)cc12 [Compound 8, 5-Hydroxy-2-(4-hydroxyphenyl)-3-methyl-1-[6-piperidino-hexyl]-indole]	–	–	–	38%	44%	48%	–	–	–	–	affinity for the estrogen receptor (in words) [1]: greatest affinity
7.6	Cc1c(-c2ccc(O)cc2)n(CCCCCCCCN2CCCC2)c2ccc(O)cc12 [Compound 9, 5-Hydroxy-2-(4-hydroxyphenyl)-3-methyl-1-[8-pyrrolidino-octyl]-indole]	–	–	–	–	–	–	–	–	–	–	–
10	Cc1c(-c2ccc(O)cc2)n(CCCCCCN2CCOCC2)c2ccc(O)cc12 [Compound 10, 5-Hydroxy-2-(4-hydroxyphenyl)-3-methyl-1-[6-morpholino-hexyl]-indole]	102%	8%	18%	36%	52%	75%	–	–	–	–	Uterotrophic Test Rel. uterus wgt ([2]; dose 1 ug): 21.2 ± 3.9; Uterotrophic Test Rel. uterus wgt ([2]; dose 5 ug): 19.5 ± 6.9; Uterotrophic Test Rel. uterus wgt ([2]; dose 25 ug): 21.8 ± 11.3; Uterotrophic Test Rel. uterus wgt ([2]; dose 125 ug): 17.4 ± 1.7; Antiuterotrophic Test Rel. uterus wgt ([3]; dose 5 ug): 51.2 ± 7.5; Antiuterotrophic Test Rel. uterus wgt ([3]; dose 25 ug): 47.7 ± 8.4; Antiuterotrophic Test Rel. uterus wgt ([3]; dose 125 ug): 18.0 ± 4.8
14	CCN(CC)CCCCCCn1c(-c2ccc(O)cc2)c(C)c2cc(O)ccc21 [Compound 11]	50%	11%	8%	–	–	–	24.8 ± 11.7	14.7 ± 4.3	51.3 ± 4.9	52.1 ± 8.9	Uterotrophic Test Action (rel. uterus wgt) ([2]; dose 625 ug/animal): 36.4 ± 17.6; Antiuterotrophic Test Action (rel. uterus wgt) ([3]; dose 625 ug/animal): 43.7 ± 7.4; inhibition in vivo at 0.625 mg ([3]; dose 625 ug/animal): 37%
15	Cc1c(-c2ccc(O)cc2)n(CCCCCCNCc2ccccc2)c2ccc(O)cc12 [Compound 12, 1-(6-Benzylaminohexyl)-5-hydroxy-2-(4-hydroxyphenyl)-3-methyl-indole]	51%	25%	43%	41%	46%	47%	17.8 ± 4.6	23.6 ± 2.5	53.2 ± 9.0	44.6 ± 7.1	Antiuterotrophic Test Action (rel. uterus wgt) ([3]; dose 625 ug/animal): 41.8 ± 7.4; inhibition in vivo at 0.625 mg ([3]; dose 625 ug/animal): 49%
7	Cc1c(-c2ccc(O)cc2)n(CCCCCC(=O)N2CCCC2)c2ccc(O)cc12 [Compound 16, 5-Hydroxy-2-(4-hydroxyphenyl)-3-methyl-1-(6-pyrrolidinocarbonylpentyl)-indole]	53%	10%	29%	42.1 ± 4%	47.1 ± 3.7%	57.2 ± 4.4%	18.2 ± 2.3	16.5 ± 2.4	47.5 ± 10.9	42.0 ± 7.0	Uterotrophic Test Action (rel. uterus wgt) ([2]; dose 625 ug/animal): 35.3 ± 10.7; Antiuterotrophic Test Action (rel. uterus wgt) ([3]; dose 625 ug/animal): 40.7 ± 3.9; inhibition in vivo at 0.625 mg ([3]; dose 625 ug/animal): 44%; activity at 5 µM [4]: 44 ± 3.6%; activity at 0.5 µM [4]: 48.2 ± 5.4%
19	Cc1c(-c2ccc(O)cc2)n(CCCCCC(=O)N2CCCCC2)c2ccc(O)cc12 [Compound 17, 5-Hydroxy-2-(4-hydroxyphenyl)-3-methyl-1-(6-piperidinocarbonylpentyl)-indole]	59%	6%	22%	86.5 ± 8.3%	96 ± 7.7%	89 ± 10.8%	17.7 ± 3.2	16.3 ± 3.0	48.7 ± 9.1	42.9 ± 4.7	Uterotrophic Test Action (rel. uterus wgt) ([2]; dose 1 ug/animal): 23.8 ± 2.8; activity at 5 µM [4]: 99.6 ± 7.6%; activity at 0.5 µM [4]: 95.5 ± 10.2%
26	Cc1c(-c2ccc(O)cc2)n(CCCCCC(=O)N2CCOCC2)c2ccc(O)cc12 [Compound 18, 5-Hydroxy-2-(4-hydroxyphenyl)-3-methyl-1-(6-morpholinocarbonylpentyl)-indole]	41%	–	–	33.3 ± 2.8%	56.4 ± 5.2%	57.5 ± 6.8%	22.0 ± 5.6	21.2 ± 4.6	53.5 ± 8.7	52.8 ± 7.4	Uterotrophic Test Action (rel. uterus wgt) ([2]; dose 1 ug/animal): 20.2 ± 3.4; activity at 5 µM [4]: 42.4 ± 3.7%; activity at 0.5 µM [4]: 58.1 ± 6.7%
–	C[C@]12CC[C@@H]3c4ccc(O)cc4CC[C@H]3[C@@H]1CCC2=O [Estrone, reference compound]	–	–	–	–	–	–	–	–	–	–	Uterotrophic Test Rel. uterus wgt ([2]; estrone 0.4 ug): 45.8 ± 6.2 and 59.8 ± 20.0 and 53.4 ± 3.6 and 43.0 ± 7.2 and 54.2 ± 12.1; Antiuterotrophic Test Rel. uterus wgt ([3]; estrone alone 0.4 ug): 54.2 ± 12.1
